According to patent US20140221656A1, “CRYSTALLINE SOLVATES OF 6-(PIPERIDIN-4-YLOXY)-2H-ISOQUINOLIN-1-ONE HYDROCHLORIDE” (SANOFI, priority 2011, published 2014):
Entries after “also recorded” stand apart in the source; their conditions may differ. Counter-ions that a name gives are not always drawn. One block for each compound: values may come before it.

Key:
Format in all cases: physicochemical
[1] = Stability of the solvate outside the mother liquor; details: in the presence of humidity starts to transform to the hydrate
Excerpt: Thus, a further aspect of the present invention relates to the use of the methyl acetate solvate of compound (I) for the production of the hydrate, for example by subjecting it to conditions, such as an elevated temperature and/or humidity which facilitate the loss of methyl acetate and attracting water.

[2] = Dynamic vapor sorption (DVS) water vapor sorption and desorption isotherms; details: DVS 25° C.; for hygroscopicity / water content as a function of relative humidity: FIG. 13 and 14
Procedure: Moreover, the dihydrate may also be characterized by its DVS (dynamic vapor sorption) water vapor sorption and desorption isotherms measured at 25° C. as shown in FIG. 3. Before starting the sorption cycle the dihydrate probe is treated with dry nitrogen gas resulting in a transformation into phase 2 as shown by humidity resolved XRPD. […] In the sorption cycle the water content of the probe quickly increases when phase 2 is exposed to relative humidities between 1 and 20% and remains almost constant between 20 and 95%. In the desorption cycle the water content remains almost constant when the dihydrate is exposed to relative humidities between 95% and 20%. A weight loss starts below 20% relative humidity and becomes strong below 10%, especially below 5%. The change in mass at low relative humidity is completely reversible and when the humidity increases again, the rehydration proceeds rapidly with small samples. However, for bulk samples rehydration of over-dried samples can take considerably longer and rehydration may require several days. Almost identical water sorption and desorption isotherms are observed at 40° C.
With decreasing humidity the dihydrate converts back at low humidity (below about 10% r.h.) into phase 2 (cycle 1, desorption). Phase 2 then converts into the dihydrate with increasing humidity and along the same isotherm it converts back with decreasing humidity into polymorph 2 (cycle 2, see also FIG. 3)
Moisture sorption/desorption isotherms were recorded on a DVS-1 from Surface Measurement Systems. […] Typical total measurement times for both cycles are about 20-30 hours.

[3] = Thermogravimetric analysis (TGA)
Procedure: On heating the dihydrate in a dry environment, a significant weight loss starts already at slightly elevated temperature and ends at about 110° C.
In this temperature range, transformation to phase 3 was observed as determined by XRPD.
The thermogravimetric analyses were performed with a METTLER TGA851e (module TGA/SDTA851e/SF1100/042). 100 μl Al crucibles sealed with lid were used. The sample changer punches a pinhole into the lid immediately before the start of the measurement. The oven cell is purged with a nitrogen gas flow of about 50 mL/min. The measurements typically start with a hold time of about 25 min at 25° C., followed by heating of the sample with a rate of 10°/min. Temperature and weight loss were checked by a calcium oxalate hydrate reference sample.

[4] = Humidity-controlled XRPD in a humidity chamber; details: for time until transformation into the dihydrate at 95% relative humidity: held at 95% r.h., hydrochloride
Procedure: When humidity-controlled XRPD was performed at 25 and 40° C., widely identical results were obtained.
Exposure to elevated humidity causes transformation to the dihydrate as determined with humidity-controlled XRPD performed at 25° C. […] Phase 1 transformed into the dihydrate after about 15 min at 95%, which in turn changed to phase 2 after about 40 min at 2% r.h.
Exposure to elevated humidity causes transformation to the dihydrate as determined by humidity-controlled XRPD at 25° C. […] As a result phase 3 transformed into the hydrate after about 30 min at 95%, which in turn changed to phase 2 after about 30 min at 2% r.h.
Exposure to elevated humidity causes transformation to the dihydrate as determined by humidity-controlled XRPD. […] As a result phase 4 transformed into the dihydrate after about 15 min at 95%, which in turn changed to phase 2 after about 20 min at 2% r.h.
All X-ray powder diffraction was performed with Stoe Stadi-P transmission diffractometers using CuKα1 radiation (Lambda is 1.54060 Angström). For room temperature powder diffraction, linear position sensitive detectors were used; while for temperature-resolved XRPD image plate position sensitive detectors (IP-PSDs) were used. Unless stated otherwise, X-ray powder diffraction was performed at room temperature. Dry samples were investigated in a flat preparation whereas suspensions were investigated in quartz glass capillaries. The measured data were evaluated and plotted with the Software WinXPOW V2.12.

[5] = Storage at 20° C. and 75% relative humidity
Procedure: Also storage of phase 1 at 20° C. and 75% relative humidity caused complete conversion to the dihydrate within 3 weeks. The rate of conversion correlates with the relative humidity.
(§1) Also storage of phase 3 at 20° C. and 75% relative humidity caused complete conversion to the dihydrate within 3 weeks. The rate of conversion correlates with the relative humidity. When suspended in water, complete transformation into the dihydrate was observed almost immediately (<10 min).
Also storage of phase 4 at 20° C. and 75% relative humidity caused complete conversion to the dihydrate within 3 weeks. The rate of conversion apparently correlates with the relative humidity.

[6] = Maturation experiments (slurry conversion), relative stability of polymorphs and hydrate; details: for relative thermodynamic stability among the phases: suspensions of phase mixtures in dry organic solvents, 0 to 40° C., hydrochloride
Procedure: By maturation experiments (slurry conversion) at the given temperature the relative stability of the polymorphs of compound (I) and the hydrate was investigated.
The following maturation experiment was performed by stirring the suspension under the specified conditions, starting from the dihydrate. The sample was investigated by XRPD in suspension, after vacuum filtration as well as after drying over night at 40° C. in vacuum (<50 mbar). The isolated material was also investigated by DSC and TGA.
(a) Maturation of 0.210 g dihydrate of compound (I) in 0.4 mL of water at 20° C. for 35 days. Similar, maturation of the dihydrate was done in water/methanol (vol/vol 1:1) and in water/ethanol (vol/vol 1:1).
The following maturation experiments were performed by stirring the suspension under the specified conditions and isolating the solid by vacuum filtration, starting from dihydrate of compound (I). The sample was investigated by XRPD in suspension, after vacuum filtration as well as after drying. The isolated material was also investigated by DSC and TGA.
(b) Maturation of 0.203 g of dihydrate of compound (I) in 1.2 mL of methanol at 20° C. for 35 days.
(c) Maturation was also done as in (b) by using ethanol, 1-propanol or 2-propanol.
(d) Maturation of […] of dihydrate of compound (I) in 2.0 mL of 2-butanol at 20° C. for 35 days.
The following maturation experiments of suspensions of phase mixtures of the dihydrate of compound (I) and phases consisting of polymorphs 1, 3 and 4 were performed at 0, 20 and 40° C. The product was isolated by vacuum filtration and analyzed after drying.
(e) Maturation of a mixture of 0.3 mg phase 1, 23.9 mg phase 3, 29.9 mg phase 4 and 27.9 mg of the dihydrate in 0.7 mL 2-propanol at 0° C. for 2 weeks.
(f) Maturation of a mixture of 0.3 mg phase 1, 27.2 mg phase 3, 18.1 mg phase 4 and 29.6 mg of the dihydrate in 2.0 mL 2-butanol at 0° C. for 2 weeks.
(g) Similar experiments as in e) and f) were done with corresponding mixtures of phase 1, phase 3, phase 4 and the dihydrate in 2-propanol and 2-butanol at 20° C. and at 40° C., respectively.

[7] = Suspension in water, transformation into the dihydrate
Procedure: as §1

[8] = Storage under usual storage conditions (25° C./65% relative humidity)
Procedure: Moreover, the corresponding amorphous material is hygroscopic and the water content varies much stronger with the relative humidity compared to the dihydrate. This water uptake and variability in water content makes precise dosing during drug product manufacturing difficult. In contrast, the dihydrate has been proven to be stable for more than two years under usual storage conditions (no detectable decomposition at 25° C./65% relative humidity). Accordingly, the crystalline dihydrate is therefore the preferred solid form for drug product manufacturing.

[9] = Temperature-resolved XRPD
Procedure: Based on these findings the dihydrate is stable below 90° C. and thus also at room temperature. Therefore, in comparison to the other described anhydrous polymorphs, the dihydrate is particularly suitable when a high stability is desired. It is the only one that can be stored at relative humidities between 20 and 95% in different environments below 90° C., which are usual storage conditions, without the risk of transformation into another described crystalline phase. Even if exposed to a very dry environment, a possible water loss is reversible and the missing water is gained back once the compound is back in an environment having usual humidity conditions. Therefore, the dihydrate is in particular suitable for the preparation of medicaments and pharmaceutical compositions with improved stability.
All X-ray powder diffraction was performed with Stoe Stadi-P transmission diffractometers using CuKα1 radiation (Lambda is 1.54060 Angström). For room temperature powder diffraction, linear position sensitive detectors were used; while for temperature-resolved XRPD image plate position sensitive detectors (IP-PSDs) were used. Unless stated otherwise, X-ray powder diffraction was performed at room temperature. […] The measured data were evaluated and plotted with the Software WinXPOW V2.12.

[10] = Drying of the dihydrate, retention of crystal structure; details: dried dihydrate
Excerpt: In a further embodiment of the hydrate the water content is 11.4% (w/w). in a further embodiment the hydrate contains 2.0 molecules water per molecule (I). Although the hydrate phase typically contains about 10-12.5% water it can also occur with lower water content. The crystal structure of the hydrate remains even if the dihydrate is dried and the remaining water content is down to about 3%. Water uptake is reversible if humidity in the environment is raised again. The water content in the isolated product depends on the drying conditions used during work up of the hydrate after crystallisation.

Structure (SMILES): O=c1[nH]ccc2cc(OC3CCNCC3)ccc12 [methyl acetate solvate, 6-(Piperidin-4-yloxy)-2H-isoquinolin-1-one hydrochloride]
stability outside the mother liquor (in words) [1]: only moderately stable

Structure (SMILES): O=c1[nH]ccc2cc(OC3CCNCC3)ccc12 [amorphous material, 6-(Piperidin-4-yloxy)-2H-isoquinolin-1-one hydrochloride]
hygroscopicity / water content as a function of relative humidity ([2]; hydrochloride): hygroscopic

Structure (SMILES): O=c1[nH]ccc2cc(OC3CCNCC3)ccc12 [1,4-dioxane solvate, 6-(Piperidin-4-yloxy)-2H-isoquinolin-1-one hydrochloride×0.5 1,4-dioxane solvate]
stability of the solvate (in words) ([3]; from TGA / temperature-resolved XRPD): relatively stable | TGA weight loss ([3]; mainly in a temperature range from 80 to 120° C.): 16.6%

Structure (SMILES): O=c1[nH]ccc2cc(OC3CCNCC3)ccc12 [phase 1, 6-(Piperidin-4-yloxy)-2H-isoquinolin-1-one hydrochloride]
time until transformation into the dihydrate at 95% relative humidity ([4]; humidity-controlled XRPD): about 15 min | time to complete conversion to the dihydrate on storage [5]: ≤ 3 weeks | relative thermodynamic stability among the phases [6]: only a metastable polymorph

Now from value to compound, other results behind:

time until transformation into the dihydrate at 95% relative humidity ([4]; humidity-controlled XRPD): about 30 min | relative humidity above which phase changes into the dihydrate ([2]; cycle 1, sorption): above 80% | time to complete conversion to the dihydrate on storage [5]: ≤ 3 weeks | time to complete transformation into the dihydrate when suspended in water [7]: < 10 min
Structure (SMILES): O=c1[nH]ccc2cc(OC3CCNCC3)ccc12 [phase 3, 6-(Piperidin-4-yloxy)-2H-isoquinolin-1-one hydrochloride]
relative thermodynamic stability among the phases [6]: thermodynamically most stable anhydrous form; also recorded: most stable anhydrous phase

time until transformation into the dihydrate at 95% relative humidity ([4]; humidity-controlled XRPD): about 15 min | time to complete conversion to the dihydrate on storage [5]: ≤ 3 weeks | relative thermodynamic stability among the phases [6]: only a metastable one
Structure (SMILES): O=c1[nH]ccc2cc(OC3CCNCC3)ccc12 [phase 4, 6-(Piperidin-4-yloxy)-2H-isoquinolin-1-one hydrochloride]

relative humidity at which the hydrate reversibly transforms into phase 2 ([4]; humidity chamber XRPD, r.h. cycled between 2% and 95%): 2 % r.h. | time until the dihydrate changed to phase 2 at 2% r.h. ([4]; humidity-controlled XRPD, held at 2% r.h., hydrochloride dihydrate): about 30 min | hygroscopicity / water content as a function of relative humidity ([2]; hydrochloride dihydrate): maintains a quite constant water content | relative humidity below which the dihydrate converts into phase 2 ([2]; cycle 1, desorption): below 10 % r.h. | relative humidity below which weight loss starts ([2]; desorption cycle): below 20% | time proven stable under usual storage conditions (no detectable decomposition) [8]: more than two | temperature below which the form is stable ([9]; based on temperature-resolved XRPD findings): below 90 °C | temperature at which transformation to phase 3 starts ([9]; heating, accompanied by loss of water): about 90 °C | TGA weight loss (water) on heating ([3]; heating in a dry environment, ends at about 110° C.): 10.8 mass-% | solid phase after maturation in 2-butanol ([6]; 2-butanol, 20° C., 35 days, after drying): Polymorph 4 was obtained | solid phase after maturation in alcohols ([6]; methanol, ethanol, 1-propanol or 2-propanol, 20° C., 35 days): polymorph 3 was obtained | solid phase after maturation in aqueous media ([6]; water, water/methanol 1:1, water/ethanol 1:1, 20° C., 35 days): remained as dihydrate | remaining water content down to which the hydrate crystal structure remains on drying [10]: about 3%
Structure (SMILES): O=c1[nH]ccc2cc(OC3CCNCC3)ccc12 [dihydrate, 6-(Piperidin-4-yloxy)-2H-isoquinolin-1-one hydrochloride dihydrate]
